The results in this text go back to EP4121415B1, “INHIBITORS OF CYTOKININ OXIDASE DERIVED FROM 1-[2-(HYDROXYALKYL)PHENYL]-3-YLUREA, USE THEREOF AND PREPARATIONS CONTAINING THESE DERIVATIVES” (Univerzita Palackého v Olomouci, priority 2020, dated 2021).

This assay addresses T1, maize enzyme cytokinin oxidase/dehydrogenase 1 (ZmCKX1) (Zea mays, UniProt Q9T0N8).
T1 construct: made in house; host or cells: Yarrowia lipolytica
The assay is described as follows: ZmCKX1 inhibition, PMS/MTT assay. It is filed as biochemical. The method, then: The IC50 (concentration of a substance that causes 50% inhibition of the enzyme activity) was measured by PMS/MTT assay [phenazine methosulphate/3-(4,5-dimethylthiazol-2-yl)-2,5-diphenyltetrazolium bromide]. The assay was performed in 96-well microtiter plates. Each well contained a reaction mixture with a final concentration of: 0.1 M KH2PO4, pH 7.4, 1 mM MTT, 0.2 mM PMS, tested substance in a concentration range of 0.1 nM - 1 µM and 10 µM N^6-isopentenyladenine (iP) as a substrate. To this reaction mixture 100 µL of medium containing the active enzyme ZmCKX1 was added. The enzyme was produced by the yeast Yarrowia lipolytica and isolated according to the protocol (Kopečný D. et al., 2005, […] 87:1011-1022). The plates were incubated for 30 min at 37 °C and the enzymatic reaction was stopped by the addition of 25 µL of 35% acetic acid. Then, the absorbance at 578 nm was measured on a spectrophotometer, and the absorbance of the sample without the substrate was substracted as a reference value. The IC50 value was determined from the concentration-dependent curves in GraphPad Prism software. The values shown in Table 1 are the average of at least two measurements each performed in three repetitions. […] This also applies to 3,5-DCl-Ph-U derivatives.

Setting [1] is: 10 µM N6-isopentenyladenine (iP) as substrate, pH 7.4, 30 min at 37 °C, average of at least two measurements, read-out: IC50 (µM) ZmCKX1.

Structures are written as SMILES. Read-outs that look alike come from different tables or passages of the source.

T1 sequence (Q9T0N8 19-534): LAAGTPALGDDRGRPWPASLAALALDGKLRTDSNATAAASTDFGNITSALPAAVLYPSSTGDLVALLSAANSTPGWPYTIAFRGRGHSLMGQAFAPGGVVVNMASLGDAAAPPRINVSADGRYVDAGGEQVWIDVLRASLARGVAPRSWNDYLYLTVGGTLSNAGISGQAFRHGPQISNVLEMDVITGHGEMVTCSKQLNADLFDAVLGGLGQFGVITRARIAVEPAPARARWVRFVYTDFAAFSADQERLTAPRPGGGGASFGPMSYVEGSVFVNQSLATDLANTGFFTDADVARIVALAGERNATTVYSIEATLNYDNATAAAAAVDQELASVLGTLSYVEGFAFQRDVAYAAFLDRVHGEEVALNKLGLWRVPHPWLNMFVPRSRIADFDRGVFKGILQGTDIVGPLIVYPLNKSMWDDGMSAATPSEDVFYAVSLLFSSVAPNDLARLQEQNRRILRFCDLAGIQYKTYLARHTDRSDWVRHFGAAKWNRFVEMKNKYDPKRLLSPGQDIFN

In the case of `COc1cc(Br)cc(NC(=O)Nc2ccccc2CCO)c1` [Compound 56, 1-(3-bromo-5-methoxyphenyl)-3-[2-(2-hydroxyethyl)phenyl]urea], inhibition was half-maximal at 0.14 µM (IC50). Regarding `O=C(Nc1cccc(OC(F)(F)F)c1)Nc1cc(Cl)ccc1CO` [Compound 33, 1-(5-Chloro-2-hydroxymethylphenyl)-3-(3-trifluoromethoxyphenyl)urea], the 50% inhibitory concentration (IC50) (as a rule, the concentration that gives 50% inhibition) under setting [1] was found to be 0.06 µM. On to `O=C(Nc1cc(Cl)nc(Cl)c1)Nc1ccccc1CCO` [Compound 13, 1-(2,6-Dichloropyridin-4-yl)-3-[2-(2-hydroxyethyl)phenyl]urea], for which the concentration for half-maximal inhibition (IC50) under setting [1] came to 0.43 µM. On to `O=C(Nc1cc(F)cc(Br)c1)Nc1ccccc1CCO` [Compound 47, 1-(3-bromo-5-fluorophenyl)-3-[2-(2-hydroxyethyl)phenyl]urea], for which the IC50 worked out at 0.17 µM. With `O=C(Nc1ccnc(Cl)c1)Nc1ccccc1CCO` [Compound 12, 1-(2-Chloropyridin-4-yl)-3-[2-(2-hydroxyethyl)phenyl]urea], the IC50 under setting [1] was found to be 1.3 µM. For the molecule `O=C(Nc1cc(Cl)cc(Cl)c1)Nc1cccc(Cl)c1CO` [Compound 20, 1-(3-Chloro-2-hydroxymethylphenyl)-3-(3,5-dichlorophenyl)urea], the 50% inhibitory concentration (IC50) under setting [1] was 0.27 µM. As to `O=C(Nc1cc(Cl)cc(Cl)c1)Nc1ccccc1CO` [Compound 18, 1-(3,5-Dichlorophenyl)-3-(2-hydroxymethylphenyl)urea], under setting [1], the IC50 came out at 0.4 µM. On to `COc1cc(NC(=O)Nc2ccccc2CO)ccn1` [Compound 7, 1-(2-methoxypyridin-4-yl)-3-(2-hydroxymethylphenyl)urea], for which, under setting [1], the IC50 is 1.1 µM. On the same count and under the same terms, under `O=C(Nc1cccc(SC(F)(F)F)c1)Nc1ccccc1CO` [Compound 41, 1-(2-hydroxymethylphenyl)-3-(3-trifluoromethylsulphanylphenyl)urea] stands 0.14 µM. Take `O=C(Nc1cc(Cl)cc(Cl)c1)Nc1ccccc1CCO` [Compound 45, 1-(3,5-Dichlorophenyl)-3-[2-(2-hydroxyethyl)phenyl]urea]: under setting [1], the 50% inhibitory concentration (IC50) was determined as 0.18 µM. Same read-out and setting: under `COc1cc(F)cc(NC(=O)Nc2ccccc2CCO)c1` [Compound 54, 1-(3-fluoro-5-methoxyphenyl)-3-[2-(2-hydroxyethyl)phenyl]urea] stands 0.28 µM; under `O=C(Nc1cc(NCCO)cc(OC(F)(F)F)c1)Nc1ccccc1CO` [Compound 38, 1-[3-(2-hydroxyethylamino)-5-trifluoromethoxyphenyl]-3-(2-hydroxymethylphenyl)urea], 0.1 µM. The same measure, in the same setting: under `COc1cc(NCCN)cc(NC(=O)Nc2ccccc2CCO)c1` [Compound 58] stands 0.13 µM; under `O=C(Nc1cc(Br)cc(Br)c1)Nc1ccccc1CCO` [Compound 46, 1-(3,5-dibromophenyl)-3-[2-(2-hydroxyethyl)phenyl]urea], 0.14 µM; under `NCCNc1cc(NC(=O)Nc2ccccc2CO)cc(OC(F)(F)F)c1` [Compound 39, 1-[3-(2-aminoethylamino)-5-trifluoromethoxyphenyl]-3-(2-hydroxymethylphenyl)urea], 0.095 µM.

Take `O=C(Nc1cc(Br)cc(Br)c1)Nc1ccccc1CO` [Compound 19, 1-(3,5-dibromophenyl)-3-(2-hydroxymethylphenyl)urea]: the IC50 under setting [1] is 0.33 µM. As for `O=C(Nc1cccc(OC(F)(F)F)c1)Nc1cc(Cl)cc(Cl)c1CO` [Compound 36, 1-(3,5-dichloro-2-hydroxymethylphenyl)-3-(3-trifluoromethoxyphenyl)urea], the half-inhibitory concentration (IC50) under setting [1] amounted to 0.032 µM.

For the molecule `COc1cc(NCCO)cc(NC(=O)Nc2ccccc2CO)c1` [Compound 23, 1-[3-(2-hydroxyethylamino)-5-methoxyphenyl]-3-(2-hydroxymethylphenyl)urea], the concentration for half-maximal inhibition (IC50) under setting [1] amounted to 0.2 µM. Same read-out and setting: under `COc1cc(NCCN)cc(NC(=O)Nc2ccccc2CO)c1` [Compound 24, 1-[3-(2-aminoethylamino)-5-methoxyphenyl]-3-(2-hydroxymethylphenyl)urea] stands 0.18 µM; under `O=C(Nc1cccc(OC(F)(F)F)c1)Nc1cc(F)cc(F)c1CO` [Compound 35, 1-(3,5-Difluoro-2-hydroxymethylphenyl)-3-(3-trifluoromethoxyphenyl)urea], 0.085 µM. As for `O=C(Nc1cccc(OC(F)(F)F)c1)Nc1cccc(Br)c1CO` [Compound 31, 1-(3-bromo-2-hydroxymethylphenyl)-3-(3-trifluoro-methoxyphenyl)urea], under setting [1], the half-maximal inhibitory concentration (IC50) is 0.37 µM. As for `COc1cc(Cl)cc(NC(=O)Nc2ccccc2CCO)c1` [Compound 55, 1-(3-Chloro-5-methoxyphenyl)-3-[2-(2-hydroxyethyl)phenyl]urea], the half-inhibitory concentration (IC50) under setting [1] worked out at 0.18 µM. On to `O=C(Nc1cccc(OC(F)(F)F)c1)Nc1ccccc1CO` [Compound 28, 1-(2-Hydroxymethylphenyl)-3-(3-trifluoromethoxyphenyl)urea], for which, under setting [1], the 50% inhibitory concentration (IC50) was 1.3 µM. On the same count and under the same terms, under `O=C(Nc1cc(Cl)cc(Cl)c1)Nc1cc(Cl)cc(Cl)c1CCO` [Compound 49, 1-[3,5-Dichloro-2-(2-hydroxyethyl)phenyl]-3-(3,5-dichlorophenyl)urea] stands 0.01 µM. In the case of `O=C(Nc1cc(F)cc(F)c1)Nc1ccccc1CO` [Compound 17, 1-(3,5-difluorophenyl)-3-(2-hydroxymethylphenyl)urea], under setting [1], the IC50 was determined as 0.65 µM. As to `O=C(Nc1cccc(OC(F)(F)F)c1)Nc1cc(F)ccc1CO` [Compound 32, 1-(5-fluoro-2-hydroxymethylphenyl)-3-(3-trifluoromethoxyphenyl)urea], the IC50 under setting [1] is 0.11 µM. For `O=C(Nc1cc(F)nc(F)c1)Nc1ccccc1CO` [Compound 3, 1-(2,6-difluoropyridin-4-yl)-3-(2-hydroxymethylphenyl)urea], the IC50 under setting [1] turned out to be 0.82 µM.

In the case of `O=C(Nc1cc(Cl)nc(Cl)c1)Nc1ccccc1CO` [Compound 5, 1-(2,6-dichloropyridin-4-yl)-3-(2-hydroxymethylphenyl)urea], the IC50 under setting [1] amounted to 0.7 µM. Consider `O=C(Nc1cc(F)cc(Cl)c1)Nc1ccccc1CCO` [Compound 48, 1-(3-chloro-5-fluorophenyl)-3-[2-(2-hydroxyethyl)phenyl]urea], for which the IC50 under setting [1] was found to be 0.21 µM. As for `O=C(Nc1cccc(OC(F)(F)F)c1)Nc1cccc(F)c1CO` [Compound 29, 1-(3-fluoro-2-hydroxymethylphenyl)-3-(3-trifluoromethoxyphenyl)urea], the IC50 under setting [1] was 0.36 µM. Take `CSc1cccc(NC(=O)Nc2ccccc2CO)c1` [Compound 26, 1-(2-hydroxymethylphenyl)-3-(3-methylsulphanylphenyl)urea]: the 50% inhibitory concentration (IC50) under setting [1] was 1.5 µM. For `O=C(Nc1cccc(SC(F)(F)F)c1)Nc1cc(Cl)ccc1CO` [Compound 43, 1-(5-chloro-2-hydroxymethylphenyl)-3-(3-trifluoromethylsulphanylphenyl)urea], the 50% inhibitory concentration (IC50) under setting [1] came out at 0.02 µM. As for `NCCNc1cc(NC(=O)Nc2ccccc2CCO)cc(OC(F)(F)F)c1` [Compound 67], the concentration for half-maximal inhibition (IC50) under setting [1] amounted to 0.022 µM. On to `O=C(Nc1cccc(OC(F)(F)F)c1)Nc1cc(F)ccc1CCO` [Compound 63, 1-[5-fluoro-2-(2-hydroxyethyl)phenyl]-3-(3-trifluoromethoxyphenyl)urea], for which the half-inhibitory concentration (IC50) under setting [1] worked out at 0.036 µM. Turning to `O=C(Nc1cccc(OC(F)(F)F)c1)Nc1cccc(Cl)c1CO` [Compound 30, 1-(3-Chloro-2-hydroxymethylphenyl)-3-(3-trifluoromethoxyphenyl)urea], under setting [1], the half-inhibitory concentration (IC50) was determined as 0.3 µM.

As for `COc1cc(NCCO)cc(NC(=O)Nc2ccccc2CCO)c1` [Compound 57, 1-[3-(2-hydroxyethylamino)-5-methoxyphenyl]-3-[2-(2-hydroxyethyl)phenyl]urea], the IC50 under setting [1] was 0.16 µM.

Consider `O=C(Nc1cc(Cl)nc(Cl)c1)Nc1cc(F)ccc1CCO` [Compound 14, 1-[5-fluoro-2-(2-hydroxyethyl)phenyl]-3-(2,6-dichloropyridin-4-yl)urea], for which the IC50 under setting [1] was determined as 0.056 µM.

Take `O=C(Nc1ccnc(F)c1)Nc1ccccc1CCO` [Compound 9, 1-(2-fluoropyridin-4-yl)-3-[2-(2-hydroxyethyl)phenyl]urea]: under setting [1], the 50% inhibitory concentration (IC50) was found to be 1.6 µM. The same measure, in the same setting: in the case of `COc1cccc(NC(=O)Nc2ccccc2CCO)c1` [Compound 50, 1-[2-(2-hydroxyethyl)phenyl]-3-(3-methoxyphenyl)urea] it was 0.27 µM; in that of `O=C(Nc1ccnc(Cl)c1)Nc1ccccc1CO` [Compound 4, 1-(2-chloropyridin-4-yl)-3-(2-hydroxymethylphenyl)urea], 1.6 µM; in that of `O=C(Nc1ccnc(F)c1)Nc1ccccc1CO` [Compound 1, 1-(2-fluoropyridin-4-yl)-3-(2-hydroxymethylphenyl)urea], 2.5 µM. In the case of `COc1cc(NC(=O)Nc2cc(F)ccc2CCO)ccn1` [Compound 15, 1-[5-fluoro-2-(2-hydroxyethyl)phenyl]-3-(2-methoxypyridin-4-yl)urea], the IC50 under setting [1] was 0.15 µM. Turning to `O=C(Nc1cccc(OC(F)(F)F)c1)Nc1cc(Br)cc(Br)c1CO` [Compound 37, 1-(3,5-dibromo-2-hydroxymethylphenyl)-3-(3-trifluoromethoxyphenyl)urea], under setting [1], the concentration for half-maximal inhibition (IC50) is 0.051 µM. Same read-out and setting: under `O=C(Nc1cc(Cl)cc(Cl)c1)Nc1cc(Cl)cc(Cl)c1CO` [Compound 21, 1-(3,5-Dichloro-2-hydroxymethylphenyl)-3-(3,5-dichlorophenyl)urea] stands 0.02 µM.
